Reference: patent US8563584B2, “Substituted enaminothiocarbonyl compounds” (Bayer CropScience AG, priority 2008, dated 2013)

Columns and labels:
[1] = system: green peach aphid (Myzus persicae); experiment: Myzus test (MYZUPE spray treatment); type: in vivo; conditions: application rate of 500 g/ha; spray treatment of infested Chinese cabbage leaf discs, all stages
Procedure: Myzus Test (MYZUPE Spray Treatment) Solvents: 78 parts by weight of acetone • • 1.5 parts by weight of dimethylformamide Emulsifier: 0.5 part by weight of alkylaryl polyglycol ether To produce a suitable preparation of active compound, 1 part by weight of active compound is mixed with the stated amounts of solvent and emulsifier, and the concentrate is diluted with emulsifier-containing water to the desired concentration. Discs of Chinese cabbage leaves (Brassica pekinensis) which are infested by all stages of the green peach aphid (Myzus persicae) are sprayed with a preparation of active compound of the desired concentration. After the desired period of time, the effect in % is determined 100% means that all aphids have been killed; 0% means that none of the aphids have been killed.

[2] = system: larvae of the mustard beetle (Phaedon cochleariae); experiment: Phaedon test (PHAECO spray treatment); type: in vivo; conditions: application rate of 500 g/ha; spray treatment of Chinese cabbage leaf discs
Procedure: Phaedon Test ([…] Spray Treatment) Solvents: 78 parts by weight of acetone • • 1.5 parts by weight of dimethylformamide Emulsifier: 0.5 part by weight of alkylaryl polyglycol ether To produce a suitable preparation of active compound, 1 part by weight of active compound is mixed with the stated amounts of solvent and emulsifier, and the concentrate is diluted with emulsifier-containing water to the desired concentration. Discs of Chinese cabbage leaves (Brassica pekinensis) are sprayed with an active compound preparation of the desired concentration and, after drying, populated with larvae of the mustard beetle (Phaedon cochleariae). After the desired period of time, the effect in % is determined 100% means that all beetle larvae have been killed; 0% means that none of the beetle larvae have been killed.

FC(F)CN(Cc1ccc(Cl)nc1)C1=CC(=S)OC1 [Ex. No. 1, 4-{[(6-Chloropyridin-3-yl)methyl](2,2-difluoroethyl)amino}furan-2(5H)-thione]
activity (effect in %; 100% means that all aphids have been killed) [1]: ≥ 80% | activity (effect in %; 100% means that all beetle larvae have been killed) [2]: ≥ 80%
